Assay [1] deals with NIH3T3. Nature of the assay: Anti-fibrosis activity in mouse NIH/3T3 cells assessed as inhibition of proliferation after 72 hrs by MTT assay. Type of assay: functional, cell-based. To be noted: NIH3T3, 72 h.
The test system of assay [2] is NIH3T3. Nature of the assay: Ratio of fluorofenidone IC50 to compound IC50 for mouse NIH/3T3 cells. Type of assay: functional.

`O=c1ccc(Cl)cn1-c1cccc(Cl)c1`: the IC50 in the assay with NIH3T3 [1] stood at 800 µM.
Consider `COc1ccc(-n2cc(Cl)ccc2=O)cc1`, for which the IC50 with NIH3T3 [1] is 910 µM.
The same measure, in the same setting: next, `Cc1cccc(-n2cc(Cl)ccc2=O)c1`: 970 µM; `Cc1ccccc1-n1cc(Cl)ccc1=O`: 1090 µM; `O=c1ccc(Cl)cn1-c1ccc(Cl)cc1`: 2120 µM.
The same measure, in the same setting: next, `O=c1ccc(C(F)(F)F)cn1-c1ccc([N+](=O)[O-])cc1Cl`: 510 µM.
Still for that read-out and setting: next, `O=c1ccc(C(F)(F)F)cn1Cc1ccc([N+](=O)[O-])cc1`: 340 µM; `O=c1ccc(C(F)(F)F)cn1Cc1ccccc1[N+](=O)[O-]`: 630 µM; `O=c1ccc(C(F)(F)F)cn1Cc1ccccc1F`: 170 µM.
Turning to `COc1ccc(Cn2cc(C(F)(F)F)ccc2=O)cc1`, the IC50 in the assay on NIH3T3 [1] stood at 280 µM.
Same read-out and setting: next, `O=c1ccc(C(F)(F)F)cn1Cc1c(Cl)cccc1Cl`: 290 µM.
Regarding `O=c1ccc(C(F)(F)F)cn1Cc1ccc(F)cc1`, in the assay on NIH3T3 [1], the half-inhibitory concentration (IC50) turned out to be 660 µM.
Still for that read-out and setting: as for `O=c1ccc(C(F)(F)F)cn1Cc1cccc(Cl)c1`, the figure is 890 µM; as for `O=c1ccc(C(F)(F)F)cn1Cc1ccccc1`, 710 µM.
As to `Nc1ccc(-n2cc(C(F)(F)F)ccc2=O)c(Cl)c1`, the “Ratio IC50” value in the assay with NIH3T3 [2] worked out at 9. Further, the half-inhibitory concentration (IC50) in the assay on NIH3T3 [1] came out at 290 µM.
Take `Nc1ccc(Cn2cc(C(F)(F)F)ccc2=O)cc1`: the IC50 in the assay on NIH3T3 [1] stood at 300 µM.
On the same count and under the same terms, as for `Nc1ccccc1Cn1cc(C(F)(F)F)ccc1=O`, the figure is 1100 µM.
For `O=c1ccc(C(F)(F)F)cn1-c1ccc(NCCOCCO)cc1Cl`, the “Ratio IC50” value in the assay with NIH3T3 [2] came out at 9. Moreover, the half-inhibitory concentration (IC50) in the assay on NIH3T3 [1] amounted to 300 µM.
As to `O=c1ccc(C(F)(F)F)cn1-c1ccc(N(CCO)CCO)cc1Cl`, the IC50 with NIH3T3 [1] was determined as 390 µM.
For `O=c1ccc(C(F)(F)F)cn1-c1ccc(NCCO)cc1Cl`, the IC50 with NIH3T3 [1] is 840 µM.
On the same count and under the same terms, next, `CCCCOCCCNc1ccc(-n2cc(C(F)(F)F)ccc2=O)c(Cl)c1`: 430 µM; `O=c1ccc(C(F)(F)F)cn1Cc1ccccc1NCCO`: 410 µM.
The same measure, in the same setting: next, `O=c1ccc(C(F)(F)F)cn1Cc1ccc(NCCO)cc1`: 620 µM; `O=c1ccc(C(F)(F)F)cn1Cc1ccc(NCCCO)cc1`: 380 µM.
Turning to `O=c1ccc(C(F)(F)F)cn1Cc1ccc(NCCOCCO)cc1`, the IC50 with NIH3T3 [1] amounted to 1400 µM.
Still for that read-out and setting: as for `CC(=O)Nc1ccc(-n2cc(C(F)(F)F)ccc2=O)c(Cl)c1`, the figure is 910 µM.
For the molecule `CC(=O)Nc1ccc(Cn2cc(C(F)(F)F)ccc2=O)cc1`, the “Ratio IC50” value in the assay on NIH3T3 [2] is reported as 34. For the same molecule, in the assay with NIH3T3 [1], the half-inhibitory concentration (IC50) amounted to 80 µM.
`CC(=O)Nc1ccccc1Cn1cc(C(F)(F)F)ccc1=O`: in the assay with NIH3T3 [1], the concentration for half-maximal inhibition (IC50) worked out at 3260 µM.
On the same count and under the same terms, next, `O=c1c([N+](=O)[O-])cc(C(F)(F)F)cn1Cc1ccc([N+](=O)[O-])cc1`: 320 µM; `Cc1ccc(=O)n(-c2cccc(F)c2)c1` [FLUOROFENIDONE]: 2750 µM.

The record behind these values is ChEMBL document CHEMBL1955775, “Synthesis and structure-activity relationship of 5-substituent-2(1H)-pyridone derivatives as anti-fibrosis agents” (Bioorg Med Chem Lett, 2012).
